The source of these data is US7739055B2, “Methods and systems for generating and evaluating peptides” (priority 2005, dated 2010).

≈ marks a conversion by molar mass, not a printed value. Like-named read-outs stand apart in the source and are kept apart here. Where a SMILES comes first, the peptide text is derived from it.

Setting [1] is: first concentration that prohibits growth by OD at 24 hours, Table 1.

As to FVGSLASKVVPSVFGAIKTK [Peptide 82], the “MIC B. cereus” value against B. cereus (setting [1]) is listed as “+ (MIC greater than 256 ug/mL)”. The “MIC E. coli” value against Escherichia coli (setting [1]) is “+ (MIC greater than 256 ug/mL)”.
For MKSIAKFIAKTVAKQGAKQG [Peptide 39], the “MIC B. cereus” value against B. cereus is “+ (key: +: MIC greater than 256 ug/mL; ++: MIC greater than 128 ug/mL, not sufficiently soluble to test as 256 ug/mL)”. The “MIC E. coli” value against Escherichia coli (setting [1]) is on record as “+ (MIC greater than 256 ug/mL)”.
As for LPAVFKLASKVVPSVFGLVK [Peptide 42], in the assay with B. cereus (setting [1]), the “MIC B. cereus” value is “+ (MIC greater than 256 ug/mL)”. In addition, the “MIC E. coli” value in the assay on Escherichia coli (setting [1]) is reported as “+ (MIC greater than 256 ug/mL)”.
On to SAVGKLASKVFPAVFSMVTK [Peptide 31], for which the “MIC B. cereus” value with B. cereus (setting [1]) is listed as “+ (MIC greater than 256 ug/mL)”. For the same compound, in the assay on Escherichia coli (setting [1]), the “MIC E. coli” value is reported as “+ (MIC greater than 256 ug/mL)”.
On to TAKVVVFVSFSYVVPKKRAC [Shuffled 2], for which, in the assay on B. cereus (setting [1]), the “MIC B. cereus” value was “+ (MIC greater than 256 ug/mL)”. The “MIC E. coli” value in the assay on Escherichia coli (setting [1]) is given as “+ (MIC greater than 256 ug/mL)”.
On to SSSIPIKMVLVRALVFVKSG [Shuffled 55], for which the “MIC B. cereus” value in the assay on B. cereus (setting [1]) was “+ (MIC greater than 256 ug/mL)”. For the same compound, the “MIC E. coli” value in the assay with Escherichia coli (setting [1]) is “+ (MIC greater than 256 ug/mL)”.
In the case of VKDLAKFIAKTVAKQGGCYL [Peptide 33], the “MIC B. cereus” value against B. cereus (setting [1]) is reported as “++ (MIC greater than 128 ug/mL, not sufficiently soluble to test as 256 ug/mL)”. For the same compound, the “MIC E. coli” value against Escherichia coli (setting [1]) is on record as “++ (MIC greater than 128 ug/mL, not sufficiently soluble to test as 256 ug/mL)”.
For SALGRLASKVVPAVIGKVTT [Peptide 56], the “MIC B. cereus” value with B. cereus (setting [1]) is recorded as “+ (MIC greater than 256 ug/mL)”. The “MIC E. coli” value with Escherichia coli (setting [1]) was “+ (MIC greater than 256 ug/mL)”.
Turning to KVYVVKIAVPCFPKSARSVS [Shuffled 29], in the assay with B. cereus (setting [1]), the “MIC B. cereus” value is “+ (MIC greater than 256 ug/mL)”. The “MIC E. coli” value against Escherichia coli (setting [1]) was “+ (MIC greater than 256 ug/mL)”.
As to IASAVPVCVKGKISKSYISV [Shuffled 44], the “MIC B. cereus” value with B. cereus (setting [1]) is on record as “+ (MIC greater than 256 ug/mL)”. For the same compound, the “MIC E. coli” value in the assay with Escherichia coli (setting [1]) is on record as “+ (MIC greater than 256 ug/mL)”.
With PYSLKNGENWLLSEEIIRYP [Peptide 50], in the assay on B. cereus (setting [1]), the “MIC B. cereus” value is reported as “+ (MIC greater than 256 ug/mL)”. For the same compound, in the assay with Escherichia coli (setting [1]), the “MIC E. coli” value was “+ (MIC greater than 256 ug/mL)”.
VKTKCSVPAVVYILVKTFKS [Shuffled 88]: the “MIC B. cereus” value with B. cereus (setting [1]) is recorded as “+ (MIC greater than 256 ug/mL)”. Besides, in the assay on Escherichia coli (setting [1]), the “MIC E. coli” value was “+ (MIC greater than 256 ug/mL)”.
With PVVGRVASKVFPAVIGLVKK [Peptide 45], the “MIC B. cereus” value with B. cereus (setting [1]) is listed as “+ (MIC greater than 256 ug/mL)”. The “MIC E. coli” value against Escherichia coli (setting [1]) is given as “+ (MIC greater than 256 ug/mL)”.
For MVVFSVPKFKSTVAKLLSSA [Shuffled 1], in the assay on B. cereus (setting [1]), the “MIC B. cereus” value is “+ (MIC greater than 256 ug/mL)”. Further, the “MIC E. coli” value with Escherichia coli (setting [1]) was “+ (MIC greater than 256 ug/mL)”.
Take KSPFVLVVSSRVAAVIKSLP [Shuffled 25]: in the assay on B. cereus (setting [1]), the “MIC B. cereus” value is on record as “+ (MIC greater than 256 ug/mL)”. Moreover, the “MIC E. coli” value against Escherichia coli (setting [1]) was “+ (MIC greater than 256 ug/mL)”.
Consider RKRKSDVDFEAEFELFEDDD [Peptide 19], for which the “MIC B. cereus” value with B. cereus (setting [1]) is reported as “+ (MIC greater than 256 ug/mL)”. The “MIC E. coli” value against Escherichia coli (setting [1]) is reported as “+ (MIC greater than 256 ug/mL)”.
In the case of `CC[C@H](C)[C@H](NC(=O)[C@H](CCSC)NC(=O)[C@H](C)NC(=O)[C@@H]1CCCN1C(=O)[C@@H](NC(=O)[C@@H](NC(=O)[C@H](CCCCN)NC(=O)[C@@H](NC(=O)[C@H](CC(C)C)NC(=O)CNC(=O)CNC(=O)[C@H](CC(C)C)NC(=O)[C@@H](N)Cc1ccccc1)[C@@H](C)CC)[C@@H](C)CC)C(C)C)C(=O)N[C@@H](CS)C(=O)N[C@@H](C)C(=O)N[C@H](C(=O)N[C@H](C(=O)N[C@@H](CCCCN)C(=O)N[C@@H](CCCCN)C(=O)N[C@@H](CS)C(=O)O)[C@@H](C)O)C(C)C` [Ranalexin] (H-FLGGLIKIVPAMICAVTKKC-OH; N-terminus and C-terminus assumed), the “MIC B. cereus” value against B. cereus (24 h) stood at 32 µg/mL (≈ 15.2 µM). Also, the “MIC E. coli” value against Escherichia coli (24 h) was 64 µg/mL (≈ 30.4 µM).
Consider SALGRVASKVFPAVYCSITK [Peptide 15], for which the “MIC B. cereus” value against B. cereus (setting [1]) is recorded as “+ (MIC greater than 256 ug/mL)”. Further, in the assay with Escherichia coli (setting [1]), the “MIC E. coli” value was “+ (MIC greater than 256 ug/mL)”.
On to `CC[C@H](C)[C@H](NC(=O)CNC(=O)[C@@H](NC(=O)[C@H](CCCCN)NC(=O)[C@H](CCCCN)NC(=O)[C@H](Cc1ccccc1)NC(=O)[C@H](CC(C)C)NC(=O)[C@H](CCCCN)NC(=O)[C@H](Cc1c[nH]c2ccccc12)NC(=O)[C@@H](N)CCCCN)[C@@H](C)CC)C(=O)NCC(=O)N[C@@H](CCCCN)C(=O)N[C@@H](Cc1ccccc1)C(=O)N[C@@H](CC(C)C)C(=O)N[C@@H](Cc1c[nH]cn1)C(=O)N[C@@H](CO)C(=O)N[C@@H](C)C(=O)N[C@@H](CCCCN)C(=O)N[C@@H](CCCCN)C(=O)N[C@@H](Cc1ccccc1)C(=O)O` [Cec A Mag 2] (H-KWKLFKKIGIGKFLHSAKKF-OH; N-terminus and C-terminus assumed), for which, in the assay with B. cereus, the “MIC B. cereus” value was “+ (key: +: MIC greater than 256 ug/mL; ++: MIC greater than 128 ug/mL, not sufficiently soluble to test as 256 ug/mL)”. In addition, in the assay on Escherichia coli (setting [1]), the “MIC E. coli” value is 32 µg/mL (≈ 13.3 µM).
In the case of ALVYAGIKKTAFLKVQKCDG [Shuffled 33], the “MIC B. cereus” value in the assay with B. cereus (setting [1]) was “+ (MIC greater than 256 ug/mL)”. The “MIC E. coli” value against Escherichia coli (setting [1]) is listed as “+ (MIC greater than 256 ug/mL)”.
Turning to STVKVASKLAVVVSPISKGS [Shuffled 36], in the assay with B. cereus (setting [1]), the “MIC B. cereus” value is “+ (MIC greater than 256 ug/mL)”. Moreover, the “MIC E. coli” value against Escherichia coli (setting [1]) is recorded as “+ (MIC greater than 256 ug/mL)”.
On to VVGRVASKVVPSLIGLFTTK [Peptide 65], for which the “MIC B. cereus” value against B. cereus (setting [1]) is given as “+ (MIC greater than 256 ug/mL)”. In the assay with Escherichia coli (setting [1]), the “MIC E. coli” value is on record as “+ (MIC greater than 256 ug/mL)”.
`CC(C)C[C@H](NC(=O)[C@H](CCCCN)NC(=O)[C@H](Cc1ccccc1)NC(=O)[C@@H](NC(=O)[C@H](C)NC(=O)[C@@H]1CCCN1C(=O)[C@@H](N)CC(C)C)C(C)C)C(=O)N[C@@H](C)C(=O)N[C@@H](CO)C(=O)N[C@@H](CCCCN)C(=O)N[C@H](C(=O)N[C@@H](Cc1ccccc1)C(=O)N1CCC[C@H]1C(=O)N[C@@H](C)C(=O)N[C@H](C(=O)N[C@@H](Cc1ccc(O)cc1)C(=O)N[C@@H](CS)C(=O)N[C@@H](CCCCN)C(=O)N[C@@H](C)C(=O)N[C@@H](CO)C(=O)O)C(C)C)C(C)C` [Peptide 62] (H-LPAVFKLASKVFPAVYCKAS-OH; N-terminus and C-terminus assumed): the “MIC B. cereus” value with B. cereus (setting [1]) is “+ (MIC greater than 256 ug/mL)”. Also, in the assay on Escherichia coli (24 h), the “MIC E. coli” value was 128 µg/mL (≈ 59.8 µM).
Consider KYGPALVIAVKKSCSLTFRA [Shuffled 23], for which the “MIC B. cereus” value against B. cereus (setting [1]) is recorded as “+ (MIC greater than 256 ug/mL)”. Also, in the assay with Escherichia coli (setting [1]), the “MIC E. coli” value is “+ (MIC greater than 256 ug/mL)”.
Consider LGVVGSLASKVVPAVISKVK [Peptide 57], for which the “MIC B. cereus” value with B. cereus (setting [1]) was “+ (MIC greater than 256 ug/mL)”. Further, in the assay on Escherichia coli (setting [1]), the “MIC E. coli” value is “+ (MIC greater than 256 ug/mL)”.
For `CC[C@H](C)[C@H](NC(=O)[C@H](CCCCN)NC(=O)[C@H](Cc1ccccc1)NC(=O)[C@@H](NC(=O)[C@H](C)NC(=O)[C@@H]1CCCN1)C(C)C)C(=O)N[C@@H](C)C(=O)N[C@@H](CO)C(=O)N[C@@H](CCCCN)C(=O)N[C@H](C(=O)N[C@H](C(=O)N1CCC[C@H]1C(=O)N[C@@H](CO)C(=O)N[C@H](C(=O)N[C@@H](Cc1ccc(O)cc1)C(=O)N[C@@H](CS)C(=O)N[C@@H](CCCCN)C(=O)N[C@H](C(=O)N[C@@H](CO)C(=O)N[C@@H](CCCNC(=N)N)C(=O)O)C(C)C)C(C)C)C(C)C)C(C)C` [Peptide 29] (H-PAVFKIASKVVPSVYCKVSR-OH; N-terminus and C-terminus assumed), the “MIC B. cereus” value against B. cereus (setting [1]) is on record as “+ (MIC greater than 256 ug/mL)”. For the same compound, the “MIC E. coli” value in the assay with Escherichia coli (24 h) was 128 µg/mL (≈ 58.8 µM).
